# Test results from patent US20230250055A1, “PROCESS OF MAKING N,N-DIACETYL-L-CYSTINE DISODIUM SALT FROM CYSTINE AND ACETYL CHLORIDE IN METHANOL IN THE PRESENCE OF SODIUM HYDROXIDE” (Conopco, Inc., d/b/a UNILEVER, priority 2020, published 2023).
# Columns and labels:
# [1] = solubility of NDAC relative to cystine; assay type: physicochemical
# skin cells = experiment: potentiating glutathione synthesis within skin cells; assay type: cell-based; conditions: compared with cystine
# [2] = organic solvents such as alcohols, ethers, esters, ketones; cited from earlier work
Compound,solubility compared with cystine [1],performance for potentiating glutathione synthesis within skin cells (skin cells),solubility in organic solvents [2]
"CC(=O)N[C@@H](CSSC[C@H](NC(C)=O)C(=O)O)C(=O)O [NDAC, N,N′-diacetyl-L-cystine]",more soluble,comparable to that of cystine,–
"N[C@@H](CSSC[C@H](N)C(=O)O)C(=O)O [cystine, L-Cystine]",–,–,practically insoluble
